What was measured:
Format in all cases: in vivo
Details in all cases: 200 mpk PO; LPS-challenged mice, plasma at 6.5 h; unpaired t-test vs vehicle
[1] = tested on: IL-6; assay: Acute LPS-induced sepsis in C57BL/6 mice: IL-6 cytokine detection assay
Description: FIG. 11 is a graph showing the results of an IL-6 cytokine detection assay in samples collected from mouse subjects after administration of compounds of the present disclosure.
(§1) The primary objective of this study was to collect plasma samples of lipopolysaccharide (LPS) challenged C57BL/6 mice after dose of test compounds to provide a cytokine profile as impacted by prophylactic treatments. This study models acute sepsis, which is a systemic inflammatory syndrome initiated by Gram-negative and Gram-positive bacteria and fungi which infect the lungs, abdomen, bloodstream, and renal or genitourinary tracts. Sepsis patients ultimately die of multiorgan failure which is caused by extensive tissue hypo-oxygenation due to ongoing microvascular leakage, disseminated intravascular coagulation, compromised energy production, and metabolic alterations. Sepsis is characterized by an early systemic inflammatory response phase featuring symptoms, such as tachycardia, fever, hyperventilation, and activation of the complement and coagulation cascades. However, it is now appreciated that a compensatory anti-inflammatory response phase follows, characterized by neuroendocrine-mediated immunosuppression. Since these processes are the result of interaction between cells of inflammation and organs, investigation of the treatment of this syndrome requires the use of intact animal models. The use of ten mice per group allows useful statistical modelling of the results.
(§2) For the data shown in Table 2A, 103 mice (female, 18-22 gram, C57BL/6) were purchased from ENVIGO. The mice were housed in 20 cages of 5 mice per cage with 1 cage of 3 mice as extra. The cages had filter tops and autoclaved bedding, and the animals were placed in quarantine with daily inspection. The treatment groups are detailed in Table 2A below. 10 mice were included in each group. The mice were dosed by oral gavage (PO) at 10 ml/kg as per the table below. MC=methyl cellulose.
as §2, with “2B, 185” for “2A, 103”, “37” for “20”, “cage.” for “cage with 1 cage of 3 mice as extra.”, “2B” for “2A”, “(P0)” for “(PO)”
(§3) At T=0 h, the mice were dosed with one of the test compounds as described in the above table.
(§4) At T=0.5 h, the mice were injected IP with 1.5 mg/kg […] (Sigma).
(§5) At T=6.5 h, all mice were anesthetized and exsanguinated into pre-chilled EDTA-treated tubes. […]
(§6) A 32-plex cytokine panel was obtained from Eve Technologies. Each cytokine was assessed based against a 7 point curve range in duplicate. […]

[2] = tested on: IL-13; assay: Acute LPS-induced sepsis in C57BL/6 mice: IL-13 cytokine detection assay
Description: FIG. 17 is a graph showing the results of an IL-13 cytokine detection assay in samples collected from mouse subjects after administration of compounds of the present disclosure.
as §1, §2
as §2, with “2B, 185” for “2A, 103”, “37” for “20”, “cage.” for “cage with 1 cage of 3 mice as extra.”, “2B” for “2A”, “(P0)” for “(PO)”
as §3, §4
(§7) At T=6.5 h, all mice were anesthetized and exsanguinated into pre-chilled EDTA-treated tubes. The blood was processed to plasma which was stored in labeled 0.5 polypropylene snap-cap tubes (0.5 mL Eppendorf Safe-Lock Tubes (Fisher Scientific) at −80° C.
(§8) Preparation of vehicle: 1.0 gram of methyl cellulose (Sigma) was dissolved in 200 mL of water (USP purified) to make a solution of 0.5% methyl cellulose in water. Preparation of LPS solution: 6 mg of LPS (from Escherichia Coli 055:B5, Cat #L2880, Sigma Lot #057m4013) was dissolved in 20 ml of saline to give a LPS solution of 0.3 mg/ml. All mice were injected with 5 ml/kg (1.5 mg/kg) at the scheduled time by intraperitoneal injection.
A 32-plex cytokine panel was obtained from Eve Technologies. Each cytokine was assessed based against a 7 point curve range in duplicate. The average of the two replicate analyses was used for statistics. […]

[3] = tested on: MCP-1(CCL2); assay: Acute LPS-induced sepsis in C57BL/6 mice: MCP-1(CCL2) cytokine detection assay
[4] = tested on: eotaxin; assay: Acute LPS-induced sepsis in C57BL/6 mice: eotaxin cytokine detection assay
[5] = tested on: IL-1α; assay: Acute LPS-induced sepsis in C57BL/6 mice: IL-1α cytokine detection assay
Description: FIG. 5 is a graph showing the results of an IL-1α cytokine detection assay in samples collected from mouse subjects after administration of compounds of the present disclosure.
as §1, with “Since these processes are the result of interaction between cells of inflammation and organs, investigation of the treatment of this syndrome requires the use of intact animal models. The use of ten mice per group allows useful statistical modelling of the results.” left out
as §6

[6] = tested on: IL-3; assay: Acute LPS-induced sepsis in C57BL/6 mice: IL-3 cytokine detection assay
[7] = tested on: IL-10; assay: Acute LPS-induced sepsis in C57BL/6 mice: IL-10 cytokine detection assay
[8] = tested on: IFNγ; assay: Acute LPS-induced sepsis in C57BL/6 mice: IFNγ cytokine detection assay
[9] = tested on: LIX (CXCL5); assay: Acute LPS-induced sepsis in C57BL/6 mice: LIX (CXCL5) cytokine detection assay
Description: FIG. 22 is a graph showing the results of a LIX (CXCL5) cytokine detection assay in samples collected from mouse subjects after administration of compounds of the present disclosure.
as §1, with “Since these processes are the result of interaction between cells of inflammation and organs, investigation of the treatment of this syndrome requires the use of intact animal models. The use of ten mice per group allows useful statistical modelling of the results.” left out
as §6

[10] = tested on: leukemia inhibitory factor (LIF); assay: Acute LPS-induced sepsis in C57BL/6 mice: leukemia inhibitory factor (LIF) cytokine detection assay
Description: FIG. 21 is a graph showing the results of a leukemia inhibitory factor (LIF) cytokine detection assay in samples collected from mouse subjects after administration of compounds of the present disclosure. LIF is an interleukin 6 class cytokine that affects cell growth by inhibiting differentiation.
as §1, §2
as §2, with “2B, 185” for “2A, 103”, “37” for “20”, “cage.” for “cage with 1 cage of 3 mice as extra.”, “2B” for “2A”, “(P0)” for “(PO)”
as §3, §4, §7, §8, §6

[11] = tested on: IL-17; assay: Acute LPS-induced sepsis in C57BL/6 mice: IL-17 cytokine detection assay
Description: FIG. 19 is a graph showing the results of an IL-17 cytokine detection assay in samples collected from mouse subjects after administration of compounds of the present disclosure.
as §1
as §2, with “The mice were dosed by oral gavage (PO) at 10 ml/kg as per the table below.” left out
as §2, with “2B, 185” for “2A, 103”, “37” for “20”, “cage.” for “cage with 1 cage of 3 mice as extra.”, “2B” for “2A”, “(P0)” for “(PO)”
as §3, §4, §5, §6

[12] = tested on: VEGF; assay: Acute LPS-induced sepsis in C57BL/6 mice: VEGF cytokine detection assay
Description: FIG. 30 is a graph showing the results of a VEGF cytokine detection assay in samples collected from mouse subjects after administration of compounds of the present disclosure.
as §1, with “Since these processes are the result of interaction between cells of inflammation and organs, investigation of the treatment of this syndrome requires the use of intact animal models. The use of ten mice per group allows useful statistical modelling of the results.” left out
as §6

[13] = tested on: TNFα; assay: Acute LPS-induced sepsis in C57BL/6 mice: TNFα cytokine detection assay
Description: FIG. 29 is a graph showing the results of a TNFα cytokine detection assay in samples collected from mouse subjects after administration of compounds of the present disclosure.
as §1
as §2, with “cellulose. […]” for “cellulose.”
as §6

[14] = tested on: KC; assay: Acute LPS-induced sepsis in C57BL/6 mice: KC cytokine detection assay
Description: FIG. 20 is a graph showing the results of a KC cytokine detection assay in samples collected from mouse subjects after administration of compounds of the present disclosure.
as §1, §2
as §2, with “2B, 185” for “2A, 103”, “37” for “20”, “cage.” for “cage with 1 cage of 3 mice as extra.”, “2B” for “2A”, “(P0)” for “(PO)”
as §3, §4, §7, §8
(§9) A 32-plex cytokine panel was obtained from Eve Technologies. Each cytokine was assessed based against a 7 point curve range in duplicate. The average of the two replicate analyses was used for statistics. Unpaired t-tests were performed using Excel™ contrasting vehicle against each treatment group. One star indicates P<0.05. Two stars indicates P<0.01. Three stars indicates P<0.001. Four stars indicates P<0.0001. Most, but not all, statistically significant results are indicated with star(s).

[15] = tested on: IL-15; assay: Acute LPS-induced sepsis in C57BL/6 mice: IL-15 cytokine detection assay
[16] = tested on: IL-9; assay: Acute LPS-induced sepsis in C57BL/6 mice: IL-9 cytokine detection assay
Description: FIG. 13 is a graph showing the results of an IL-9 cytokine detection assay in samples collected from mouse subjects after administration of compounds of the present disclosure.
as §1
as §2, with “cellulose. […]” for “cellulose.”
as §6

[17] = tested on: M-CSF (CSF1); assay: Acute LPS-induced sepsis in C57BL/6 mice: M-CSF (CSF1) cytokine detection assay
Description: FIG. 24 is a graph showing the results of an M-CSF (CSF1) cytokine detection assay in samples collected from mouse subjects after administration of compounds of the present disclosure. M-CSF causes hematopoietic stem cells to differentiate into macrophages.
as §1, §2
as §2, with “2B, 185” for “2A, 103”, “37” for “20”, “cage.” for “cage with 1 cage of 3 mice as extra.”, “2B” for “2A”, “(P0)” for “(PO)”
as §3, §4, §7, §8, §9

## CC(O)(c1sc2cc(C(F)(F)F)ccc2c1N)C(F)(F)F (centres unmarked) [Compound I-3, 2-(3-amino-6-(trifluoromethyl)benzo[b]thiophen-2-yl)-1,1,1-trifluoropropan-2-ol]
[1]
  IL-6: significant cytokine change vs. vehicle: ** (Two stars indicates P<0.01)
[2]
  IL-13: significant cytokine change vs. vehicle: *** (Three stars indicates P<0.001)
[3]
  MCP-1: significant cytokine change vs. vehicle: **** (Four stars indicates P<0.0001)
[4]
  Eotaxin: significant cytokine change vs. vehicle: ** (Two stars indicates P<0.01)
[5]
  IL-1a: significant cytokine change vs. vehicle: *** (Three stars indicates P<0.001)
[6]
  IL-3: significant cytokine change vs. vehicle: **** (Four stars indicates P<0.0001)
[7]
  IL-10: significant cytokine change vs. vehicle: * (One star indicates P<0.05)
[8]
  IFNy: significant cytokine change vs. vehicle: **** (Four stars indicates P<0.0001)
[9]
  LIX: significant cytokine change vs. vehicle: * (One star indicates P<0.05)
[10]
  LIF: significant cytokine change vs. vehicle: * (One star indicates P<0.05)
[11]
  IL-17: significant cytokine change vs. vehicle: *** (Three stars indicates P<0.001)
[12]
  VEGF: significant cytokine change vs. vehicle: * (One star indicates P<0.05)
[13]
  TNFa: significant cytokine change vs. vehicle: ** (Two stars indicates P<0.01)
[14]
  KC: significant cytokine change vs. vehicle: ** (Two stars indicates P<0.01)
[15]
  IL-15: significant cytokine change vs. vehicle: ** (Two stars indicates P<0.01)
[16]
  IL-9: significant cytokine change vs. vehicle: *** (Three stars indicates P<0.001)
[17]
  M-CSF: significant cytokine change vs. vehicle: ** (Two stars indicates P<0.01)
